EP2951180B1, “2,6,7,8 SUBSTITUTED PURINES AS HDM2 INHIBITORS” (Merck Sharp & Dohme Corp., priority 2013, dated 2014)

target: T1, HDM2 (Homo sapiens, UniProt Q00987); assay: HDM2 FRET assay (inhibition of binding of FITC labeled p53-pocket peptide to HDM2); conditions: 0.5 nM HDM2 (residues 17 to 125), 3nM peptide, two hour incubation at room temperature; read-out: FRET IC50
T1 construct: Thioredoxin (N); made in house; host or cells: E. coli strain BL21(DE3)Rosetta
Procedure, shortened: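 Signal is read as the 520/495 nm emission ratio and converted to percent inhibition; nonlinear sigmoidal regression yields IC50. The assay mixes HDM2 (0.5 nM), FITC-p53 peptide (3 nM) and Tb anti-His antibody (0.25 nM) at 0.1% DMSO.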

T1 sequence (Q00987 17-125): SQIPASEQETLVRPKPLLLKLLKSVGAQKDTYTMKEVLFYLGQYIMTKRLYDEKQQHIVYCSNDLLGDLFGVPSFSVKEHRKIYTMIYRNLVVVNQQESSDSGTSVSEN

First: C[C@H]1CC[C@H](Cn2c(N3CCOC[C@H]3c3ccccc3)nc3nc(-c4noc(=O)[nH]4)nc(-c4cc(Cl)cnc4OCc4ccccc4)c32)CC1 [Example 16.161, 3-{6-[2-(benzyloxy)-5-chloropyridin-3-yl]-7-[(trans-4-methylcyclohexyl)methyl]-8-[(3R)-3-phenylmorpholin-4-yl]-7H-purin-2-yl}-1,2,4-oxadiazol-5(4H)-one]
Second: C[C@H]1CC[C@H](Cn2c(N3CCOC[C@H]3c3ccccc3)nc3nc(-c4noc(=O)[nH]4)nc(-c4cc(Cl)cnc4O)c32)CC1 [Example 16.162, 3-{6-(5-chloro-2-hydroxypyridin-3-yl)-7-[(trans-4-methylcyclohexyl)methyl]-8-[(3R)-3-phenylmorpholin-4-yl]-7H-purin-2-yl}-1,2,4-oxadiazol-5(4H)-one]
The IC50 of the first is 4.3-fold higher: 3.65 nM for the first, 0.847 nM for the second. The second is the more potent here.

Compared with C[C@H]1CC[C@H](Cn2c(N3CCOC[C@H]3c3ccccc3)nc3nc(-c4n[nH]c(=O)o4)nc(-c4cc(Cl)cnc4O)c32)CC1 [Example 16.163, 5-{6-(5-chloro-2-hydroxypyridin-3-yl)-7-[(trans-4-methylcyclohexyl)methyl]-8-[(3R)-3-phenylmorpholin-4-yl]-7H-purin-2-yl} -1,3,4-oxadiazol-2(3H)-one], C[C@H]1CC[C@H](Cn2c(N3CCOC[C@H]3c3ccccc3)nc3nc(-c4n[nH]c(=O)o4)nc(C4CCCCC4)c32)CC1 [Example 16.166, 5-{6-cyclohexyl-7-[(trans-4-methylcyclohexyl)methyl]-8-[(3R)-3-phenylmorpholin-4-yl]-7H -purin-2-yl}-1,3,4-oxadiazol-2(3H)-one] is 7.5-fold higher in IC50: 1.23 nM for the first, 9.22 nM for the second. The first is the more potent here.

First: C[C@H]1CC[C@H](Cn2c(N3CCOC[C@H]3c3ccccc3)nc3nc(-c4noc(=O)[nH]4)nc(C4CCCCC4)c32)CC1 [Example 16.165, 3-{6-cyclohexyl-7-[(trans-4-methylcyclohexyl)methyl]-8-[(3R)-3-phenylmorpholin-4-yl]-7H-purin-2-yl}-1,2,4-oxadiazol-5(4H)-one]
Second: CC1CCCC(c2nc(-c3noc(=O)[nH]3)nc3nc(N4CCOC[C@H]4c4ccccc4)n(C[C@H]4CC[C@H](C)CC4)c23)C1 (stereo partly drawn) [Example 16.169, 3-{6-(3-methylcyclohexyl)-7-[(trans-4-methylcyclohexyl)methyl]-8-[(3R)-3-phenylmorpholin-4-yl]-7H -purin-2-yl}-1,2,4-oxadiazol-5(4H)-one]
The IC50 of the first is 2-fold higher: 5.08 nM for the first, 2.53 nM for the second. The second is the more potent here.

C[C@H]1CC[C@H](Cn2c(N3CCOC[C@H]3c3ccccc3)nc3nc(-c4noc(=O)[nH]4)nc(C4CCOCC4)c32)CC1 [Example 16.167, 3-{7-[(trans-4-methylcyclohexyl)methyl]-8-[(3R)-3-phenylmorpholin-4-yl]-6-(tetrahydro-2H-pyran-4-yl)-7H-purin-2-yl}-1,2,4-oxadiazol-5(4H)-one] and C[C@H]1CC[C@H](Cn2c(N3CCOC[C@H]3c3ccccc3)nc3nc(-c4n[nH]c(=O)o4)nc(C4CCOCC4)c32)CC1 [Example 16.168, 5-{7-[(trans-4-methylcyclohexyl)methyl]-8-[(3R)-3-phenylmorpholin-4-yl]-6-(tetrahydro-2H-pyran-4-yl)-7H-purin-2-yl} -1,3,4-oxadiazol-2(3H)-one] are within 1.5-fold of each other in IC50: 46.6 nM for the first, 67.1 nM for the second.

First: CC1CCCC(c2nc(-c3n[nH]c(=O)o3)nc3nc(N4CCOC[C@H]4c4ccccc4)n(C[C@H]4CC[C@H](C)CC4)c23)C1 (stereo partly drawn) [Example 16.170, 5-{6-(3-methylcyclohexyl)-7-[(trans-4-methylcyclohexyl)methyl]-8-[(3R)-3-phenylmorpholin-4-yl]-7H-purin-2-yl} - 1,3,4-oxadiazol-2(3H)-one]
Second: Cc1cccc(-c2nc3nc(C(=O)O)nc(OCC4CCC4)c3n2Cc2ccc(C(F)(F)F)cc2)c1 [Example 17.3, 6-(cyclobutylmethoxy)-8-(3-methylphenyl)-7-[4-(trifluoromethyl)benzyl]-7H-purine-2-carboxylic acid]
The IC50 of the first is 23-fold lower: 8.3 nM for the first, 192 nM for the second.

Going from CCOc1nc(C(=O)O)nc2nc(-c3cccc(C)c3)n(Cc3ccc(C(F)(F)F)cc3)c12 [Example 17.1, 6-ethoxy-8-(3-methylphenyl)-7-[4-(trifluoromethyl)benzyl]-7H-purine-2-carboxylic acid] to Cc1cccc(-c2nc3nc(C(=O)O)nc(OCC4CC4)c3n2Cc2ccc(C(F)(F)F)cc2)c1 [Example 17.2, 6-(cyclopropylmethoxy)-8-(3-methylphenyl)-7-[4-(trifluoromethyl)benzyl]-7H-purine-2-carboxylic acid], the IC50 falls from 5900 nM to 814 nM (7.2-fold).

same assay, conditions: Table 17.2; read-out: FRET IC50

CC(=O)N1CCN(c2nc3nc(-c4noc(=O)[nH]4)nc(N[C@H](C)C4CCC4)c3n2C[C@H]2CC[C@H](C)CC2)[C@H](C)C1 [Example 17.9, 3-(8-((R)-4-acetyl-2-methylpiperazin-1-yl)-6-(((R)-1-cyclobutylethyl)amino)-7-((trans-4-methylcyclohexyl)methyl)-7H-purin-2-yl)-1,2,4-oxadiazol-5(4H)-one] and C[C@@H]1CN(C(=O)CO)CCN1c1nc2nc(-c3noc(=O)[nH]3)nc(N[C@H](C)C3CCC3)c2n1C[C@H]1CC[C@H](C)CC1 [Example 17.18, 3-(6-{[(1R)-1-cyclobutylethyl]amino}-8-[(2R)-4-(hydroxyacetyl)-2-methylpiperazin-1-yl]-7-[(trans-4-methylcyclohexyl)methyl]-7H-purin-2-yl)-1,2,4-oxadiazol-5(4H)-one] are within 1.5-fold of each other in IC50: 2.61 nM for the first, 3.79 nM for the second.

Going from CC(=O)N1CCN(c2nc3nc(-c4noc(=O)[nH]4)nc(N[C@H](C)C4CCC4)c3n2C[C@H]2CC[C@H](C)CC2)[C@H](c2ccccc2)C1 [Example 17.10, 3-{8-[(2R)-4-acetyl-2-phenylpiperazin-1-yl]-6-{[(1R)-1-cyclobutylethyl]amino}-7-[(trans-4-methylcyclohexyl)methyl]-7H-purin-2-yl}-1,2,4-oxadiazol-5(4H)-one] to C[C@@H](Nc1nc(-c2noc(=O)[nH]2)nc2nc(N3CCN(S(C)(=O)=O)C[C@H]3c3ccccc3)n(C[C@H]3CC[C@H](C)CC3)c12)C1CCC1 [Example 17.13, 3-(6-{[(1R)-1-cyclobutylethyl]amino}-7-[(trans-4-methylcyclohexyl)methyl]-8-[(2R)-4-(methylsulfonyl)-2-phenylpiperazin-1-yl]-7H-purin-2-yl)-1,2,4-oxadiazol-5(4H)-one], the IC50 rises from 0.215 nM to 1.86 nM (8.7-fold).

CC(=O)N1CCN(c2nc3nc(C(N)=O)nc(N[C@H](C)C4CCC4)c3n2C[C@H]2CC[C@H](C)CC2)[C@H](c2ccccc2)C1 [Example 17.11, 8-[(2R)-4-acetyl-2-phenylpiperazin-1-yl]-6-{[(1R)-1-cyclobutylethyl]amino}-7-[(trans-4-methylcyclohexyl)methyl]-7H-purine-2-carboxamide] and C[C@@H](Nc1nc(C(N)=O)nc2nc(N3CCN(S(C)(=O)=O)C[C@H]3c3ccccc3)n(C[C@H]3CC[C@H](C)CC3)c12)C1CCC1 [Example 17.12, 6-{[(1R)-1-cyclobutylethyl]amino}-7-[(trans-4-methylcyclohexyl)methyl]-8-[(2R)-4-(methylsulfonyl)-2-phenylpiperazin-1-yl]-7H-purine-2-carboxamide] are within 1.5-fold of each other in IC50: 6.33 nM for the first, 4.6 nM for the second.

Compared with C[C@@H]1CN(S(C)(=O)=O)CCN1c1nc2nc(-c3noc(=O)[nH]3)nc(N[C@H](C)C3CCC3)c2n1C[C@H]1CC[C@H](C)CC1 [Example 17.14, 3-(6-{[(1R)-1-cyclobutylethyl]amino}-7-[(trans-4-methylcyclohexyl)methyl]-8-[(2R)-2-methyl-4-(methylsulfonyl)piperazin-1-yl]-7H-purin-2-yl)-1,2,4-oxadiazol-5(4H)-one], CC(C)S(=O)(=O)N1CCN(c2nc3nc(-c4noc(=O)[nH]4)nc(N[C@H](C)C4CCC4)c3n2C[C@H]2CC[C@H](C)CC2)[C@H](C)C1 [Example 17.17, 3-(6-{[(1R)-1-cyclobutylethyl]amino}-7-[(trans-4-methylcyclohexyl)methyl]-8-{(2R)-2-methyl-4-[(1-methylethyl)sulfonyl]piperazin-1-yl}-7H-purin-2-yl)-1,2,4-oxadiazol-5(4H)-one] is 2-fold higher in IC50: 4.93 nM for the first, 10.1 nM for the second. The first is the more potent here.

Going from C[C@@H]1CN(C(=O)C(C)(C)C)CCN1c1nc2nc(-c3noc(=O)[nH]3)nc(N[C@H](C)C3CCC3)c2n1C[C@H]1CC[C@H](C)CC1 [Example 17.15, 3-(6-{[(1R)-1-cyclobutylethyl]amino}-8-[(2R)-4-(2,2-dimethylpropanoyl)-2-methylpiperazin-1-yl]-7-[(trans-4-methylcyclohexyl)methyl]-7H-purin-2-yl)-1,2,4-oxadiazol-5(4H)-one] to C[C@@H]1CN(C(=O)C2CC2)CCN1c1nc2nc(-c3noc(=O)[nH]3)nc(N[C@H](C)C3CCC3)c2n1C[C@H]1CC[C@H](C)CC1 [Example 17.16, 3-(6-{[(1R)-1-cyclobutylethyl]amino}-8-[(2R)-4-(cyclopropylcarbonyl) -2-methylpiperazin-1-yl]-7-[(trans-4-methylcyclohexyl)methyl]-7H-purin-2-yl)-1,2,4-oxadiazol-5(4H)-one], the IC50 falls from 4.3 nM to 1.22 nM (3.5-fold).

C[C@@H]1CNCCN1c1nc2nc(-c3noc(=O)[nH]3)nc(N[C@H](C)C3CCC3)c2n1C[C@H]1CC[C@H](C)CC1 [Example 17.19, 3-(6-{[(1R)-1-cyclobutylethyl]amino}-7-[(trans-4-methylcyclohexyl)methyl]-8-[(2R)-2-methylpiperazin-1-yl]-7H-purin-2-yl)-1,2,4-oxadiazol-5(4H)-one] and C[C@@H]1CN(C(=O)OC(C)(C)C)[C@@H](C)CN1c1nc2nc(-c3noc(=O)[nH]3)nc(N[C@H](C)C3CCC3)c2n1C[C@H]1CC[C@H](C)CC1 [Example 17.20, tert-butyl (2S,5R)-4-[6-{[(1R)-1-cyclobutylethyl]amino}-7-[(trans-4-methylcyclohexyl)methyl]-2-(5-oxo-4,5-dihydro-1,2,4-oxadiazol-3-yl)-7H-purin-8-yl]-2,5-dimethylpiperazine-1-carboxylate] are within 1.5-fold of each other in IC50: 15.5 nM for the first, 14.7 nM for the second.
